Results from US20210369853A1, “TARGETED PROTEASE DEGRADATION PLATFORM” (EUBULUS BIOTHERAPEUTICS INC., priority 2018, published 2021).

Tested on: Human Monocytic Leukemia MV4-11
Test: Cell proliferation experiment (Alarm blue, 72 h, EC50)
Type: cell-based
Conditions: Homo sapiens, MV4-11, MV4;11 cells
Experimental: (2.1) Cell Proliferation Experiment:
Reagents: RPMI-1640 medium, McCoy's 5A medium, IMDM medium, MEM medium, L-15 medium, fetal bovine serum, Penicillin-Streptomycin double antibody, trypsin, etc., 2-mercaptoethanol, NEAA, pyruvate, etc.
The cells were cultured in conventional ways, and the cells should be passed at least for at least 2 generations before plating. Cells at the logarithmic growth phase are collected, prepared into single cell suspensions and counted. The concentration of cells was adjusted to the desired concentration, and cells were inoculated into a 96-well cell culture plate at 100 μl per well. 100 μL of complete medium of the test compound were added to each well, set up 2 duplicates for each concentration, and diluted with a 5-fold gradient, and continue to culture for 72 h. All cells were subjected to EC50 test for corresponding samples.
The fluorescence intensity of each well was detected using the Alarm blue method, and EC50 was calculated.
EC50 was calculated according to the following formula:
Y=Max+(Min−Max)/[1+(X/EC50)×Slope]
wherein Min, Max and Slope represent the minimum, maximum and slope respectively.

Row | Structure (SMILES) | EC50 [µM]
1 | Cc1ncsc1-c1ccc(CNC(=O)[C@@H]2C[C@@H](O)CN2C(=O)[C@@H](NC(=O)CCOCCOCCOCCNC(=O)[C@]2(Cc3cccc(Nc4nccs4)n3)CC[C@@H](Oc3cccc(Cl)c3F)CC2)C(C)(C)C)cc1 [UB-180612] | 0.1 to 1
2 | Cc1ncsc1-c1ccc(CNC(=O)[C@@H]2C[C@@H](O)CN2C(=O)[C@@H](NC(=O)CCNC(=O)c2ccc(Nc3ncc4c(n3)-c3ccc(Cl)cc3C(c3c(F)cccc3F)=NC4)cc2)C(C)(C)C)cc1 [UB-180613] | 0.1 to 1
3 | Cc1ncsc1-c1ccc(CNC(=O)[C@@H]2C[C@@H](O)CN2C(=O)[C@@H](NC(=O)CCNC(=O)[C@]2(Cc3cccc(Nc4nccs4)n3)CC[C@@H](Oc3cccc(Cl)c3F)CC2)C(C)(C)C)cc1 [UB-180614] | > 1
4 | CC[C@@H]1C(=O)N(C)c2cnc(Nc3ccc(C(=O)NCCC(=O)Nc4cccc5c4CN(C4CCC(=O)NC4=O)C5=O)cc3OC)nc2N1C1CCCC1 (some centres unmarked) [UB-180618] | > 1
5 | CC[C@@H]1C(=O)N(C)c2cnc(Nc3ccc(C(=O)NCCOCCOCCNCCC(=O)N[C@H](C(=O)N4C[C@H](O)C[C@H]4C(=O)NCc4ccc(-c5scnc5C)cc4)C(C)(C)C)cc3OC)nc2N1C1CCCC1 [UB-180619] | > 1
6 | CC[C@@H]1c2c(C#N)ncn2-c2cnc(Nc3ccc(C(=O)NCCC(=O)Nc4cccc5c4CN(C4CCC(=O)NC4=O)C5=O)cc3OC)nc2N1C1CCCC1 (some centres unmarked) [UB-180621] | > 1
7 | CC[C@@H]1c2c(C#N)ncn2-c2cnc(Nc3ccc(C(=O)NCCC(=O)N[C@H](C(=O)N4C[C@H](O)C[C@H]4C(=O)NCc4ccc(-c5scnc5C)cc4)C(C)(C)C)cc3OC)nc2N1C1CCCC1 [UB-180623] | > 1
8 | CC[C@@H]1C(=O)N(C)c2cnc(Nc3ccc(C(=O)NCCOCCNCCCCCCC(=O)Nc4cccc5c4CN(C4CCC(=O)NC4=O)C5=O)cc3OC)nc2N1Cc1ccc(Br)cc1 (some centres unmarked) [UB-180653] | 0.1 to 1
9 | Cc1sc2c(c1C)C(c1ccc(Cl)cc1)=N[C@@H](CC(=O)NCCOCCNCCCC(=O)Nc1cccc3c1CN(C1CCC(=O)NC1=O)C3=O)c1nnc(C)n1-2 (some centres unmarked) [UB-180656] | 0.1 to 1
10 | COc1cc(C(=O)NCCCNCCCCC(=O)Nc2cccc3c2CN(C2CCC(=O)NC2=O)C3=O)ccc1Nc1ncc2c(n1)N(Cc1ccc(Br)cc1)CC(C)(C)C(=O)N2C (centres unmarked) [UB-180670] | 0.1 to 1
11 | COc1cc(C(=O)NCCCNCCCCCCCC(=O)Nc2cccc3c2CN(C2CCC(=O)NC2=O)C3=O)ccc1Nc1ncc2c(n1)N(Cc1ccc(Br)cc1)CC(C)(C)C(=O)N2C (centres unmarked) [UB-180671] | 0.1 to 1
12 | COc1cc(C(=O)NCCOCCNCCCCCCC(=O)Nc2cccc3c2CN(C2CCC(=O)NC2=O)C3=O)ccc1Nc1ncc2c(n1)N(Cc1ccc(Br)cc1)CC(C)(C)C(=O)N2C (centres unmarked) [UB-180672] | 0.1 to 1
13 | COc1cc(C(=O)NCCCNCCCC(=O)Nc2cccc3c2CN(C2CCC(=O)NC2=O)C3=O)ccc1Nc1ncc2c(n1)N(Cc1ccc(Br)cc1)CC(C)(C)C(=O)N2C (centres unmarked) [UB-180677] | 0.1 to 1
14 | CC[C@@H]1C(=O)N(C)c2cnc(Nc3ccc(C(=O)NCCNCCC(=O)Nc4cccc5c4CN(C4CCC(=O)NC4=O)C5=O)cc3OC)nc2N1Cc1ccc(Br)cc1 (some centres unmarked) [UB-180683] | > 1
15 | CC[C@@H]1C(=O)N(C)c2cnc(Nc3ccc(C(=O)NC4CCN(CCNCCCCC(=O)Nc5cccc6c5CN(C5CCC(=O)NC5=O)C6=O)CC4)cc3OC)nc2N1Cc1ccc(Br)cc1 (some centres unmarked) [UB-180685] | 0.01 to 0.1
16 | CC[C@@H]1C(=O)N(C)c2cnc(Nc3ccc(C(=O)NC4CCN(CCNCCCC(=O)Nc5cccc6c5CN(C5CCC(=O)NC5=O)C6=O)CC4)cc3OC)nc2N1C1CCCC1 (some centres unmarked) [UB-180687] | 0.01 to 0.1
17 | CC[C@@H]1C(=O)N(C)c2cnc(Nc3ccc(C(=O)NC4CCN(CCNCCCC(=O)Nc5cccc6c5CN(C5CCC(=O)NC5=O)C6=O)CC4)cc3OC)nc2N1Cc1ccc(Br)cc1 (some centres unmarked) [UB-180688] | 0.01 to 0.1
18 | CC[C@@H]1C(=O)N(C)c2cnc(Nc3ccc(C(=O)NCCNCCCC(=O)Nc4cccc5c4CN(C4CCC(=O)NC4=O)C5=O)cc3OC)nc2N1C1CCCC1 (some centres unmarked) [UB-180689] | 0.01 to 0.1
19 | CC[C@@H]1C(=O)N(C)c2cnc(Nc3ccc(C(=O)NCCNCCCC(=O)Nc4cccc5c4CN(C4CCC(=O)NC4=O)C5=O)cc3OC)nc2N1Cc1ccc(Br)cc1 (some centres unmarked) [UB-180690] | 0.01 to 0.1
20 | CC[C@@H]1C(=O)N(C)c2cnc(Nc3ccc(C(=O)NCc4cn(CCNCC(=O)Nc5cccc6c5CN(C5CCC(=O)NC5=O)C6=O)nn4)cc3OC)nc2N1Cc1ccc(Br)cc1 (some centres unmarked) [UB-180692] | 0.1 to 1
21 | CC[C@@H]1C(=O)N(C)c2cnc(Nc3ccc(C(=O)NC4CCN(CCNCCCCC(=O)Nc5cccc6c5CN(C5CCC(=O)NC5=O)C6=O)C4)cc3OC)nc2N1C1CCCC1 (some centres unmarked) [UB-180693] | 0.01 to 0.1
22 | CC[C@@H]1C(=O)N(C)c2cnc(Nc3ccc(C(=O)NCCNCC(=O)Nc4cccc5c4CN(C4CCC(=O)NC4=O)C5=O)cc3OC)nc2N1C1CCCC1 (some centres unmarked) [UB-180694] | 0.1 to 1
23 | CC[C@@H]1C(=O)N(C)c2cnc(Nc3ccc(C(=O)NCCNCC(=O)Nc4cccc5c4CN(C4CCC(=O)NC4=O)C5=O)cc3OC)nc2N1Cc1ccc(Cl)s1 (some centres unmarked) [UB-180695] | 0.01 to 0.1
24 | CC[C@@H]1C(=O)N(C)c2cnc(Nc3ccc(C(=O)NCCOCCNCCC(=O)Nc4cccc5c4CN(C4CCC(=O)NC4=O)C5=O)cc3OC)nc2N1C1CCCC1 (some centres unmarked) [UB-180696] | 0.01 to 0.1

Next, values leading:

Row | EC50 [µM] | Structure (SMILES)
25 | 0.01 to 0.1 | Cc1ncsc1-c1ccc(CNC(=O)[C@@H]2C[C@@H](O)CN2C(=O)[C@@H](NC(=O)CCOCCOCCOCCNC(=O)c2ccc(Nc3ncc4c(n3)-c3ccc(Cl)cc3C(c3c(F)cccc3F)=NC4)cc2)C(C)(C)C)cc1 [UB-180615]
26 | 0.01 to 0.1 | CC[C@@H]1C(=O)N(C)c2cnc(Nc3ccc(C(=O)NCCC(=O)N[C@H](C(=O)N4C[C@H](O)C[C@H]4C(=O)NCc4ccc(-c5scnc5C)cc4)C(C)(C)C)cc3OC)nc2N1C1CCCC1 [UB-180622]
27 | 0.01 to 0.1 | CC[C@@H]1C(=O)N(C)c2cnc(Nc3ccc(C(=O)NCCOCCOCCOCCNCCCCCC(=O)Nc4cccc5c4CN(C4CCC(=O)NC4=O)C5=O)cc3OC)nc2N1C1CCCC1 (some centres unmarked) [UB-180649]
28 | 0.01 to 0.1 | CC[C@@H]1C(=O)N(C)c2cnc(Nc3ccc(C(=O)NCCOCCNCCCCCCCC(=O)Nc4cccc5c4CN(C4CCC(=O)NC4=O)C5=O)cc3OC)nc2N1Cc1ccc(Br)cc1 (some centres unmarked) [UB-180652]
29 | 0.01 to 0.1 | CC[C@@H]1C(=O)N(C)c2cnc(Nc3ccc(C(=O)NCCOCCNCCCCC(=O)Nc4cccc5c4CN(C4CCC(=O)NC4=O)C5=O)cc3OC)nc2N1C1CCCC1 (some centres unmarked) [UB-180657]
30 | 0.01 to 0.1 | CC[C@@H]1C(=O)N(C)c2cnc(Nc3ccc(C(=O)NCCOCCNCCCC(=O)Nc4cccc5c4CN(C4CCC(=O)NC4=O)C5=O)cc3OC)nc2N1C1CCCC1 (some centres unmarked) [UB-180662]
31 | 0.01 to 0.1 | CC[C@@H]1C(=O)N(C)c2cnc(Nc3ccc(C(=O)NCCOCCOCCOCCNCC(=O)Nc4cccc5c4CN(C4CCC(=O)NC4=O)C5=O)cc3OC)nc2N1Cc1ccc(Br)cc1 (some centres unmarked) [UB-180664]
32 | 0.01 to 0.1 | CC[C@@H]1C(=O)N(C)c2cnc(Nc3ccc(C(=O)NCc4cn(CCNCCCC(=O)Nc5cccc6c5CN(C5CCC(=O)NC5=O)C6=O)nn4)cc3OC)nc2N1Cc1ccc(Br)cc1 (some centres unmarked) [UB-180676]
33 | 0.01 to 0.1 | CC[C@@H]1C(=O)N(C)c2cnc(Nc3ccc(C(=O)NCc4cn(CCNCCC(=O)Nc5cccc6c5CN(C5CCC(=O)NC5=O)C6=O)nn4)cc3OC)nc2N1Cc1ccc(Br)cc1 (some centres unmarked) [UB-180679]
34 | 0.01 to 0.1 | CC[C@@H]1C(=O)N(C)c2cnc(Nc3ccc(C(=O)NCCNCCC(=O)Nc4cccc5c4CN(C4CCC(=O)NC4=O)C5=O)cc3OC)nc2N1C1CCCC1 (some centres unmarked) [UB-180682]
35 | 0.01 to 0.1 | CC[C@@H]1C(=O)N(C)c2cnc(Nc3ccc(C(=O)NC4CCN(CCNCCCCC(=O)Nc5cccc6c5CN(C5CCC(=O)NC5=O)C6=O)CC4)cc3OC)nc2N1C1CCCC1 (some centres unmarked) [UB-180684]
